Data: the supplement of paper PMC10307832

Key:
Experiment in all cases: relative viability (nuclei count vs DMSO), 5 days (fraction); higher = more cells survive
CAP-232 + Lapatinib = compound: C[C@H]([C@@H](C(=O)N)NC(=O)[C@@H]1CSSC[C@@H](C(=O)N[C@H](C(=O)N[C@@H](C(=O)N[C@H](C(=O)N1)CCCCN)CC2=CNC3=CC=CC=C32)CC4=CC=C(C=C4)O)NC(=O)[C@@H](CC5=CC=CC=C5)N)O [CAP-232] + CS(=O)(=O)CCNCc1ccc(-c2ccc3ncnc(Nc4ccc(OCc5cccc(F)c5)c(Cl)c4)c3c2)o1 [Lapatinib] (partner 2 µM)
Method in brief: (§1)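 Relative viability equals treated-well nuclei counts divided by vehicle-well nuclei counts. Counts came from 4× images of lung cancer cell lines grown in 1536-well plates for 5 days after pin-tool dosing on the day after seeding. Dosing used one drug alone or a fixed anchor-drug dose plus five library-drug doses (not always all listed) in √10 steps, and values are medians of duplicate plates.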

CAP-232 + Luminespib = compound: C[C@H]([C@@H](C(=O)N)NC(=O)[C@@H]1CSSC[C@@H](C(=O)N[C@H](C(=O)N[C@@H](C(=O)N[C@H](C(=O)N1)CCCCN)CC2=CNC3=CC=CC=C32)CC4=CC=C(C=C4)O)NC(=O)[C@@H](CC5=CC=CC=C5)N)O [CAP-232] + CCNC(=O)c1noc(-c2cc(C(C)C)c(O)cc2O)c1-c1ccc(CN2CCOCC2)cc1 [Luminespib] (partner 0.01 µM)
Method in brief: as §1

CAP-232 + Palbociclib = compound: C[C@H]([C@@H](C(=O)N)NC(=O)[C@@H]1CSSC[C@@H](C(=O)N[C@H](C(=O)N[C@@H](C(=O)N[C@H](C(=O)N1)CCCCN)CC2=CNC3=CC=CC=C32)CC4=CC=C(C=C4)O)NC(=O)[C@@H](CC5=CC=CC=C5)N)O [CAP-232] + CC(=O)c1c(C)c2cnc(Nc3ccc(N4CCNCC4)cn3)nc2n(C2CCCC2)c1=O [Palbociclib] (partner 0.5 µM)
Method in brief: as §1

CAP-232 + Pictilisib = compound: C[C@H]([C@@H](C(=O)N)NC(=O)[C@@H]1CSSC[C@@H](C(=O)N[C@H](C(=O)N[C@@H](C(=O)N[C@H](C(=O)N1)CCCCN)CC2=CNC3=CC=CC=C32)CC4=CC=C(C=C4)O)NC(=O)[C@@H](CC5=CC=CC=C5)N)O [CAP-232] + CS(=O)(=O)N1CCN(Cc2cc3nc(-c4cccc5[nH]ncc45)nc(N4CCOCC4)c3s2)CC1 [Pictilisib] (partner 1 µM)
Method in brief: as §1

CAP-232 + Trametinib = compound: C[C@H]([C@@H](C(=O)N)NC(=O)[C@@H]1CSSC[C@@H](C(=O)N[C@H](C(=O)N[C@@H](C(=O)N[C@H](C(=O)N1)CCCCN)CC2=CNC3=CC=CC=C32)CC4=CC=C(C=C4)O)NC(=O)[C@@H](CC5=CC=CC=C5)N)O [CAP-232] + CC(=O)Nc1cccc(-n2c(=O)n(C3CC3)c(=O)c3c(Nc4ccc(I)cc4F)n(C)c(=O)c(C)c32)c1 [Trametinib] (partner 0.02 µM)
Method in brief: as §1

Row | Cell Line | relative viability (CAP-232 + Lapatinib; first compound 0.4 µM) | relative viability (CAP-232 + Lapatinib; first compound 1.265 µM) | relative viability (CAP-232 + Lapatinib; first compound 4 µM) | relative viability (CAP-232 + Lapatinib; first compound 12.65 µM) | relative viability (CAP-232 + Luminespib; first compound 0.4 µM) | relative viability (CAP-232 + Luminespib; first compound 1.265 µM) | relative viability (CAP-232 + Luminespib; first compound 4 µM) | relative viability (CAP-232 + Luminespib; first compound 12.65 µM) | relative viability (CAP-232 + Palbociclib; first compound 0.4 µM) | relative viability (CAP-232 + Palbociclib; first compound 1.265 µM) | relative viability (CAP-232 + Palbociclib; first compound 4 µM) | relative viability (CAP-232 + Palbociclib; first compound 12.65 µM) | relative viability (CAP-232 + Pictilisib; first compound 0.4 µM) | relative viability (CAP-232 + Pictilisib; first compound 1.265 µM) | relative viability (CAP-232 + Pictilisib; first compound 4 µM) | relative viability (CAP-232 + Pictilisib; first compound 12.65 µM) | relative viability (CAP-232 + Trametinib; first compound 0.4 µM) | relative viability (CAP-232 + Trametinib; first compound 1.265 µM) | relative viability (CAP-232 + Trametinib; first compound 4 µM) | relative viability (CAP-232 + Trametinib; first compound 12.65 µM)
1 | NCI-H3122 | 1 | 1.09 | 1 | 1.05 | 0.0705 | 0.067 | 0.0822 | 0.0819 | 0.178 | 0.181 | 0.187 | 0.214 | 0.399 | 0.573 | 0.568 | 0.566 | 0.222 | 0.194 | 0.293 | 0.24
2 | PC-3 [JPC-3] | 0.503 | 0.444 | 0.454 | 0.461 | 0.663 | 0.661 | 0.732 | 0.538 | 0.583 | 0.542 | 0.545 | 0.555 | 0.798 | 0.741 | 0.84 | 0.763 | 0.703 | 0.7 | 0.69 | 0.7
3 | PC-14 | 0.34 | 0.31 | 0.409 | 0.262 | 0.26 | 0.178 | 0.183 | 0.125 | 0.675 | 0.507 | 0.538 | 0.412 | 0.771 | 0.661 | 0.734 | 0.656 | 0.843 | 0.891 | 0.739 | 0.37
4 | RERF-LC-KJ | 0.96 | 0.859 | 1.03 | 0.861 | 1.27 | 1.39 | 1 | 0.918 | 1.43 | 1.12 | 0.908 | 0.747 | 0.563 | 0.623 | 0.538 | 0.42 | 0.927 | 0.778 | 0.784 | 0.566
5 | SK-LU-1 | 0.869 | 0.809 | 0.8 | 0.979 | 0.198 | 0.211 | 0.183 | 0.207 | 0.375 | 0.398 | 0.405 | 0.364 | 0.605 | 0.547 | 0.651 | 0.462 | 0.45 | 0.477 | 0.717 | 0.492
6 | SK-MES-1 | 0.534 | 0.469 | 0.419 | 0.473 | 0.726 | 0.889 | 0.888 | 0.531 | 0.324 | 0.292 | 0.278 | 0.258 | 0.335 | 0.379 | 0.32 | 0.323 | 0.543 | 0.549 | 0.541 | 0.524
7 | SW 1573 | 1.06 | 1.12 | 1.21 | 1.13 | 0.166 | 0.323 | 0.214 | 0.161 | 0.313 | 0.392 | 0.406 | 0.201 | 0.437 | 0.587 | 0.54 | 0.395 | 0.503 | 0.54 | 0.643 | 0.191
8 | UMC-11 | 1.02 | 0.907 | 1.14 | 1.08 | 0.964 | 1.07 | 1.07 | 0.994 | 0.346 | 0.349 | 0.311 | 0.341 | 0.775 | 0.796 | 1 | 0.876 | 0.65 | 0.546 | 0.719 | 0.456
